Literature values, collected in US20230151225A1, “BLENDING ZINC […] BASE MATERIALS IN ORDER TO CREATE QUICKLY APPLIED ANTI-MICROBIAL SURFACES” (CAO Group, Inc., priority 2020, published 2023).

**Q.** With zinc pyrithione as the substance, how does the solubility in water read?
**A.** 8 ppm
